Values quoted from earlier work in patent publication US20050124791A1, “Ion channel” (priority 2001, published 2005).

Tested on: adenylate cyclase from the outer segment of the bovine retina
Settings: membrane-associated and purified soluble enzyme
In the case of `Nc1nc2c(ncn2[C@@H]2O[C@H](COP(=O)(O)OP(=O)(O)OP(=O)(O)O)[C@@H](O)[C@H]2O)c(=O)[nH]1` [GTP], the “stimulation of the enzyme” value is given as “Neither the membrane-associated nor the purified soluble enzyme can be stimulated”. In the case of `Nc1nc2c(ncn2[C@@H]2O[C@H](COP(=O)(O)OP(=O)(O)OP(O)(O)=S)[C@@H](O)[C@H]2O)c(=O)[nH]1` [GTPyS], the “stimulation of the enzyme” value is given as “Neither the membrane-associated nor the purified soluble enzyme can be stimulated”. For GMPPhT, the “stimulation of the enzyme” value is listed as “Neither the membrane-associated nor the purified soluble enzyme can be stimulated”.
